# Assay results reported in paper PMC3545969, “Mutagenicity and antimutagenicity of (−)-hinokinin a trypanosomicidal compound measured by Salmonella microsome and comet assays” (BMC Complementary and Alternative Medicine, 2012).
# Like-named read-outs stand apart in the source and are kept apart here.
# Columns and labels:
# [1] = test system: Salmonella typhimurium TA102
# [2] = test system: Salmonella typhimurium TA97a; details: TA 97a
# epimastigote forms = details: compared with benznidazole; cited from earlier work
# [3] = test system: Chinese hamster lung fibroblast V79 cells; design: method as in PMID 20452459; details: cited from earlier work
# [4] = test system: Salmonella typhimurium TA100
# [5] = test system: Salmonella typhimurium TA98
compound,measurement,setting,value
"O=C1OC[C@H](Cc2ccc3c(c2)OCO3)[C@H]1Cc1ccc2c(c1)OCO2 [HK, (−)-hinokinin]",Number of revertants(M ± SD)/ plate,"[1]; TA 102, + S9, HK 19.5 μg/plate",363 ± 3 revertants/plate
same,MI (mutagenicity index),"[1]; TA 102, + S9, HK 39.0 μg/plate",0.9
same,Number of revertants(M ± SD)/ plate,"[1]; TA 102, + S9, HK 39.0 μg/plate",354 ± 4 revertants/plate
same,MI (mutagenicity index),"[1]; TA 102, + S9, HK 58.5 μg/plate",1.0
same,Number of revertants(M ± SD)/ plate,"[1]; TA 102, + S9, HK 58.5 μg/plate",398 ± 9 revertants/plate
same,MI (mutagenicity index),"[1]; TA 102, + S9, HK 78.0 μg/plate",1.0
same,Number of revertants(M ± SD)/ plate,"[1]; TA 102, + S9, HK 78.0 μg/plate",402 ± 3 revertants/plate
same,Number of revertants(M ± SD)/ plate,"[1]; TA 102, - S9, HK 19.5 μg/plate",231 ± 8 revertants/plate
same,MI (mutagenicity index),"[1]; TA 102, - S9, HK 39.0 μg/plate",0.9
same,Number of revertants(M ± SD)/ plate,"[1]; TA 102, - S9, HK 39.0 μg/plate",213 ± 4 revertants/plate
same,MI (mutagenicity index),"[1]; TA 102, - S9, HK 58.5 μg/plate",0.8
same,Number of revertants(M ± SD)/ plate,"[1]; TA 102, - S9, HK 58.5 μg/plate",201 ± 6 revertants/plate
same,MI (mutagenicity index),"[1]; TA 102, - S9, HK 78.0 μg/plate",0.8
same,Number of revertants(M ± SD)/ plate,"[1]; TA 102, - S9, HK 78.0 μg/plate",186 ± 2 revertants/plate
same,MI (mutagenicity index),"[2]; + S9, HK 19.5 μg/plate",1.1
same,Number of revertants(M ± SD)/ plate,"[2]; + S9, HK 19.5 μg/plate",187 ± 3 revertants/plate
same,MI (mutagenicity index),"[2]; + S9, HK 39.0 μg/plate",1.0
same,Number of revertants(M ± SD)/ plate,"[2]; + S9, HK 39.0 μg/plate",166 ± 5 revertants/plate
same,MI (mutagenicity index),"[2]; + S9, HK 58.5 μg/plate",1.0
same,Number of revertants(M ± SD)/ plate,"[2]; + S9, HK 58.5 μg/plate",172 ± 2 revertants/plate
same,MI (mutagenicity index),"[2]; + S9, HK 78.0 μg/plate",0.9
same,Number of revertants(M ± SD)/ plate,"[2]; + S9, HK 78.0 μg/plate",146 ± 4 revertants/plate
same,MI (mutagenicity index),"[2]; - S9, HK 39.0 μg/plate",0.9
same,Number of revertants(M ± SD)/ plate,"[2]; - S9, HK 39.0 μg/plate",146 ± 5 revertants/plate
same,MI (mutagenicity index),"[2]; - S9, HK 58.5 μg/plate",1.1
same,Number of revertants(M ± SD)/ plate,"[2]; - S9, HK 58.5 μg/plate",175 ± 4 revertants/plate
same,MI (mutagenicity index),"[2]; - S9, HK 78.0 μg/plate",1.0
same,Number of revertants(M ± SD)/ plate,"[2]; - S9, HK 78.0 μg/plate",163 ± 8 revertants/plate
same,trypanosomicidal activity against epimastigote forms,epimastigote forms,higher trypanosomicidal activity than benznidazole
same,"genotoxic effect, micronucleus test",[3]; HK alone,no genotoxic effect
same,"effect on chromosome damage caused by MMS, micronucleus test",[3],reduced the chromosome damage caused by MMS
same,"effect on DXR-induced clastogenicity, micronucleus test",[3]; higher concentrations of HK,potentiator of DXR-induced clastogenicity
same,"effect on DXR-induced clastogenicity, micronucleus test",[3]; lower concentrations of HK,reduction in DXR-induced clastogenicity
same,MI (mutagenicity index),"[4]; TA 100, + S9, HK 19.5 μg/plate",1.0
same,Number of revertants(M ± SD)/ plate,"[4]; TA 100, + S9, HK 19.5 μg/plate",128 ± 6 revertants/plate
same,MI (mutagenicity index),"[4]; TA 100, + S9, HK 39.0 μg/plate",0.9
same,Number of revertants(M ± SD)/ plate,"[4]; TA 100, + S9, HK 39.0 μg/plate",115 ± 8 revertants/plate
same,MI (mutagenicity index),"[4]; TA 100, + S9, HK 58.5 μg/plate",1.1
same,Number of revertants(M ± SD)/ plate,"[4]; TA 100, + S9, HK 58.5 μg/plate",134 ± 2 revertants/plate
same,MI (mutagenicity index),"[4]; TA 100, + S9, HK 78.0 μg/plate",1.0
same,Number of revertants(M ± SD)/ plate,"[4]; TA 100, + S9, HK 78.0 μg/plate",120 ± 8 revertants/plate
same,MI (mutagenicity index),"[4]; TA 100, - S9, HK 19.5 μg/plate",1.0
same,Number of revertants(M ± SD)/ plate,"[4]; TA 100, - S9, HK 19.5 μg/plate",129 ± 6 revertants/plate
same,MI (mutagenicity index),"[4]; TA 100, - S9, HK 39.0 μg/plate",1.0
same,Number of revertants(M ± SD)/ plate,"[4]; TA 100, - S9, HK 39.0 μg/plate",134 ± 5 revertants/plate
same,MI (mutagenicity index),"[4]; TA 100, - S9, HK 58.5 μg/plate",0.8
same,Number of revertants(M ± SD)/ plate,"[4]; TA 100, - S9, HK 58.5 μg/plate",112 ± 3 revertants/plate
same,MI (mutagenicity index),"[4]; TA 100, - S9, HK 78.0 μg/plate",1.1
same,Number of revertants(M ± SD)/ plate,"[4]; TA 100, - S9, HK 78.0 μg/plate",140 ± 9 revertants/plate
same,MI (mutagenicity index),"[5]; TA 98, + S9, HK 19.5 μg/plate",1.1
same,Number of revertants(M ± SD)/ plate,"[5]; TA 98, + S9, HK 19.5 μg/plate",34 ± 3 revertants/plate
same,MI (mutagenicity index),"[5]; TA 98, + S9, HK 39.0 μg/plate",1.0
same,Number of revertants(M ± SD)/ plate,"[5]; TA 98, + S9, HK 39.0 μg/plate",33 ± 4 revertants/plate
same,MI (mutagenicity index),"[5]; TA 98, + S9, HK 58.5 μg/plate",0.8
same,Number of revertants(M ± SD)/ plate,"[5]; TA 98, + S9, HK 58.5 μg/plate",28 ± 1 revertants/plate
same,MI (mutagenicity index),"[5]; TA 98, + S9, HK 78.0 μg/plate",1.0
same,Number of revertants(M ± SD)/ plate,"[5]; TA 98, + S9, HK 78.0 μg/plate",31 ± 2 revertants/plate
same,MI (mutagenicity index),"[5]; TA 98, - S9, HK 19.5 μg/plate",1.0
same,Number of revertants(M ± SD)/ plate,"[5]; TA 98, - S9, HK 19.5 μg/plate",23 ± 3 revertants/plate
same,MI (mutagenicity index),"[5]; TA 98, - S9, HK 39.0 μg/plate",1.1
same,Number of revertants(M ± SD)/ plate,"[5]; TA 98, - S9, HK 39.0 μg/plate",25 ± 3 revertants/plate
same,MI (mutagenicity index),"[5]; TA 98, - S9, HK 58.5 μg/plate",1.1
same,Number of revertants(M ± SD)/ plate,"[5]; TA 98, - S9, HK 58.5 μg/plate",25 ± 2 revertants/plate
same,MI (mutagenicity index),"[5]; TA 98, - S9, HK 78.0 μg/plate",1.1
same,Number of revertants(M ± SD)/ plate,"[5]; TA 98, - S9, HK 78.0 μg/plate",24 ± 5 revertants/plate
